# Measurements from patent publication US20100317524A1, “Sulfonylureas” (Bayer CropScience AG, priority 2005, published 2010).
# What was measured:
# [1] = system: weed plants such as Sinapis alba, Chrysanthemum segetum, Avena sativa, Stellaria media, Echinochloa crus-galli, Lolium multiflorum, Setaria viridis, Abutilon …; assay: Pre-emergence effect on weeds (greenhouse pot test, visual scoring); assay type: in vivo; conditions: applied pre-emergence at a rate of 0.3 kg or less of active substance per hectare; visual scoring after 3 to 4 weeks vs untreated controls
# Excerpt: Seeds or sections of rhizome from monocot and dicot weed plants were laid out in sandy loam soil in cardboard pots, and covered with soil. The compounds of the invention, formulated as wettable powders or emulsifiable concentrates, were then applied, in the form of aqueous suspensions or emulsions, at various dosages, onto the surface of the covering earth, at an application rate of 600 to 800 l of water per hectare (converted). Following the treatment, the pots were placed in a greenhouse and maintained under good growth conditions for the weeds. Visual scoring of the plant damage or emergence damage was made when the test plants had emerged, after a test time of 3 to 4 weeks, in comparison to untreated controls.
# [2] = system: weed plants such as Sinapis alba, Echinochloa crus-galli, Lolium multiflorum, Chrysanthemum segetum, Setaria viridis, Abutilon theophrasti, Amaranthus …; assay: Post-emergence effect on weeds (greenhouse pot test, visual scoring); assay type: in vivo; conditions: applied post-emergence (three-leaf stage) at a rate of 0.3 kg or less of active substance per hectare; visual scoring after about 3 to 4 weeks vs untreated controls
# Description: Seeds or sections of rhizome from monocot and dicot broadleaf weeds were laid out in sandy loam soil in plastic pots, covered with earth, and cultivated in a greenhouse under good growth conditions. Three weeks after sowing, the test plants were treated at the three-leaf stage. The compounds of the invention, formulated as wettable powders or as emulsion concentrates, were sprayed in different dosages onto the green parts of the plants, at an application rate of 600 to 800 l of water per hectare (converted). After the test plants had stood in the greenhouse under optimum growth conditions for a period of about 3 to 4 weeks, the effect of the products was scored visually in comparison to untreated controls.
SMILES,"herbicidal action against weed plants, pre-emergence [1]","herbicidal action against weed plants, post-emergence [2]"
COc1nc(C)nc(NC(=O)NS(=O)(=O)c2c(I)cccc2OCC(F)F)n1 [Compound 1.352],very good herbicidal action,very good herbicidal action
Cc1cc(C)nc(NC(=O)NS(=O)(=O)c2c(I)cccc2C(F)(F)F)n1 [Compound 1.099],very good herbicidal action,very good herbicidal action
COc1cc(Cl)nc(NC(=O)NS(=O)(=O)c2c(I)cccc2OCC(F)(F)F)n1 [Compound 1.344],very good herbicidal action,very good herbicidal action
COc1cc(OC)nc(NC(=O)NS(=O)(=O)c2c(I)cccc2OC(F)(F)F)n1 [Compound 1.302],very good herbicidal action,very good herbicidal action
COc1nc(NC(=O)NS(=O)(=O)c2c(I)cccc2OCC(F)(F)C(F)(F)F)nc(OC)n1 [Compound 1.373],very good herbicidal action,very good herbicidal action
COc1cc(Cl)nc(NC(=O)NS(=O)(=O)c2c(I)cccc2OC(C)C)n1 [Compound 1.187],very good herbicidal action,very good herbicidal action
COc1nc(C)nc(NC(=O)NS(=O)(=O)c2c(I)cccc2OC(C)C(F)(F)F)n1 (stereo not drawn) [Compound 1.363],very good herbicidal action,very good herbicidal action
COc1cc(Cl)nc(NC(=O)NS(=O)(=O)c2c(I)cccc2SC)n1 [Compound 1.551],very good herbicidal action,very good herbicidal action
COc1cc(OC)nc(NC(=O)NS(=O)(=O)c2c(F)cccc2I)n1 [Compound 1.001],very good herbicidal action,very good herbicidal action
CCOc1cccc(I)c1S(=O)(=O)NC(=O)Nc1nc(C)cc(C)n1 [Compound 1.166],very good herbicidal action,very good herbicidal action
Cc1cc(C)nc(NC(=O)NS(=O)(=O)c2c(I)cccc2OS(=O)(=O)N(C)C)n1 [Compound 1.509],very good herbicidal action,very good herbicidal action
COc1ccc(Cl)c(I)c1S(=O)(=O)NC(=O)Nc1nc(C)cc(C)n1 [Compound 1.600],very good herbicidal action,very good herbicidal action
COc1cc(Cl)nc(NC(=O)NS(=O)(=O)c2c(I)cccc2OCC(C)C)n1 [Compound 1.563],very good herbicidal action,very good herbicidal action
COc1cc(Cl)nc(NC(=O)NS(=O)(=O)c2c(I)cccc2OS(C)(=O)=O)n1 [Compound 1.472],very good herbicidal action,very good herbicidal action
COc1cc(Cl)nc(NC(=O)NS(=O)(=O)c2c(I)cccc2OC(C)C(F)(F)F)n1 (stereo not drawn) [Compound 1.365],very good herbicidal action,very good herbicidal action
COc1nc(NC(=O)NS(=O)(=O)c2c(I)cccc2C(F)(F)F)nc(OC)n1 [Compound 1.104],very good herbicidal action,very good herbicidal action
CCOc1cccc(I)c1S(=O)(=O)NC(=O)Nc1nc(C)nc(OC)n1 [Compound 1.165],very good herbicidal action,very good herbicidal action
COc1cc(Cl)nc(NC(=O)NS(=O)(=O)c2c(I)cccc2OCC(F)F)n1 [Compound 1.354],very good herbicidal action,very good herbicidal action
COc1nc(C)nc(NC(=O)NS(=O)(=O)c2c(I)cccc2OC)n1 [Compound 1.150],very good herbicidal action,very good herbicidal action
COc1nc(C)nc(NC(=O)NS(=O)(=O)c2c(I)cccc2SC)n1 [Compound 1.390],very good herbicidal action,very good herbicidal action

SMILES,"herbicidal action against weed plants, pre-emergence [1]","herbicidal action against weed plants, post-emergence [2]"
CCOc1cccc(I)c1S(=O)(=O)NC(=O)Nc1nc(OC)cc(OC)n1 [Compound 1.164],very good herbicidal action,very good herbicidal action
COc1nc(NC(=O)NS(=O)(=O)c2c(I)cccc2OC(C)C(F)(F)F)nc(OC)n1 (stereo not drawn) [Compound 1.366],very good herbicidal action,very good herbicidal action
COc1cc(OC)nc(NC(=O)NS(=O)(=O)c2c(I)cccc2OC(F)F)n1 [Compound 1.321],very good herbicidal action,very good herbicidal action
Cc1cc(C)nc(NC(=O)NS(=O)(=O)c2c(I)cccc2OC(C)C)n1 [Compound 1.186],very good herbicidal action,very good herbicidal action
COc1nc(NC(=O)NS(=O)(=O)c2c(I)cccc2OC)nc(OC)n1 [Compound 1.159],very good herbicidal action,very good herbicidal action
Cc1cc(C)nc(NC(=O)NS(=O)(=O)c2c(C)cccc2I)n1 [Compound 1.020],very good herbicidal action,very good herbicidal action
COc1cc(Cl)nc(NC(=O)NS(=O)(=O)c2c(I)cccc2OS(=O)(=O)N(C)C)n1 [Compound 1.510],very good herbicidal action,very good herbicidal action
Cc1cc(C)nc(NC(=O)NS(=O)(=O)c2c(I)cccc2OC(F)(F)F)n1 [Compound 1.310],very good herbicidal action,very good herbicidal action
COc1nc(NC(=O)NS(=O)(=O)c2c(OC)ccc(Cl)c2I)nc(OC)n1 [Compound 1.602],very good herbicidal action,very good herbicidal action
CCC(C)Oc1cccc(I)c1S(=O)(=O)NC(=O)Nc1nc(C)nc(OC)n1 (stereo not drawn) [Compound 1.557],very good herbicidal action,very good herbicidal action
Cc1cc(C)nc(NC(=O)NS(=O)(=O)c2c(I)cccc2OC(F)F)n1 [Compound 1.329],very good herbicidal action,very good herbicidal action
COc1nc(C)nc(NC(=O)NS(=O)(=O)c2c(I)cccc2OCC(F)(F)C(F)(F)F)n1 [Compound 1.370],very good herbicidal action,very good herbicidal action
COc1cc(OC)nc(NC(=O)NS(=O)(=O)c2c(I)cccc2SC)n1 [Compound 1.389],very good herbicidal action,very good herbicidal action
CCCCOc1cccc(I)c1S(=O)(=O)NC(=O)Nc1nc(C)nc(OC)n1 [Compound 1.553],very good herbicidal action,very good herbicidal action
COc1cccc(I)c1S(=O)(=O)NC(=O)Nc1nc(C)cc(C)n1 [Compound 1.154],very good herbicidal action,very good herbicidal action
COc1nc(C)nc(NC(=O)NS(=O)(=O)c2c(F)cccc2I)n1 [Compound 1.002],very good herbicidal action,very good herbicidal action
COc1cc(OC)nc(NC(=O)NS(=O)(=O)c2c(I)cccc2OCC(C)C)n1 [Compound 1.197],very good herbicidal action,very good herbicidal action
COc1nc(C)nc(NC(=O)NS(=O)(=O)c2c(I)cccc2C(F)(F)F)n1 [Compound 1.095],very good herbicidal action,very good herbicidal action
COc1cc(OC)nc(NC(=O)NS(=O)(=O)c2c(OC)ccc(Cl)c2I)n1 [Compound 1.598],very good herbicidal action,very good herbicidal action
